Source: ChEMBL document CHEMBL5625206, “Design, synthesis, and evaluation of novel pleuromutilin aryl acrylate derivatives as promising broad-spectrum antibiotics especially for combatting multi-drug resistant gram-negative bacteria” (Eur J Med Chem, 2023)
≈ marks a conversion by molar mass, not a printed value. Calls of active or inactive are those of the source. No cut-off for these calls is given here.

What was measured:
[1] = test system: Staphylococcus epidermidis; assay: Antibacterial activity against Staphylococcus epidermidis ATCC 12228 assessed as bacterial growth inhibition incubated for 24 hrs by CLSI based broth microdilution method; assay type: functional
[2] = test system: Staphylococcus aureus; assay: Antibacterial activity against Staphylococcus aureus ATCC 25923 assessed as bacterial growth inhibition incubated for 24 hrs by CLSI based broth microdilution method; assay type: functional
[3] = test system: Staphylococcus aureus; assay: Antibacterial activity against Staphylococcus aureus ATCC 29213 assessed as bacterial growth inhibition incubated for 24 hrs by CLSI based broth microdilution method; assay type: functional
[4] = test system: Staphylococcus aureus; assay: Antibacterial activity against methicillin-resistant Staphylococcus aureus ATCC 33591 assessed as bacterial growth inhibition incubated for 24 hrs by CLSI based broth microdilution method; assay type: functional
[5] = test system: Escherichia coli; assay: Antibacterial activity against Escherichia coli ATCC 25922 assessed as bacterial growth inhibition incubated for 24 hrs by CLSI based broth microdilution method; assay type: functional
[6] = test system: Acinetobacter baumannii; assay: Antibacterial activity against Acinetobacter baumannii ATCC 19606 assessed as bacterial growth inhibition incubated for 24 hrs by CLSI based broth microdilution method; assay type: functional
[7] = test system: Staphylococcus aureus; assay: Antibacterial activity against methicillin-resistant Staphylococcus aureus 171 clinical isolate assessed as bacterial growth inhibition incubated for 24 hrs by CLSI based broth microdilution method; assay type: functional
[8] = test system: Staphylococcus aureus; assay: Antibacterial activity against methicillin-resistant Staphylococcus aureus 575 clinical isolate assessed as bacterial growth inhibition incubated for 24 hrs by CLSI based broth microdilution method; assay type: functional
[9] = test system: Enterococcus; assay: Antibacterial activity against vancomycin-resistant Enterococcus 80 clinical isolate assessed as bacterial growth inhibition incubated for 24 hrs by CLSI based broth microdilution method; assay type: functional
[10] = test system: Pseudomonas aeruginosa; assay: Antibacterial activity against multidrug-resistant Pseudomonas aeruginosa 126 clinical isolate assessed as bacterial growth inhibition incubated for 24 hrs by CLSI based broth microdilution method; assay type: functional
[11] = test system: Klebsiella pneumoniae; assay: Antibacterial activity against multidrug-resistant Klebsiella pneumoniae 893 clinical isolate assessed as bacterial growth inhibition incubated for 24 hrs by CLSI based broth microdilution method; assay type: functional
[12] = test system: Acinetobacter baumannii; assay: Antibacterial activity against carbapenem-resistant Acinetobacter baumannii 882 clinical isolate assessed as bacterial growth inhibition incubated for 24 hrs by CLSI based broth microdilution method; assay type: functional
[13] = Cytotoxicity against human HepG2 cells incubated for 24 hrs by CCK8 assay; assay type: toxicity, cell-based
[14] = Cytotoxicity against HEK293 cells incubated for 24 hrs by CCK8 assay; assay type: toxicity, cell-based; conditions: human
[15] = Cytotoxicity against human A549 cells incubated for 24 hrs by CCK8 assay; assay type: toxicity, cell-based
[16] = test system: Mesomycoplasma hyopneumoniae; assay: Anti-mycoplasma activity against Mycoplasma hyopneumoniae J-NCYC10110 assessed as bacterial growth inhibition incubated for 7 days; assay type: functional; conditions: J-NCYC10110, 168 h, time 7 day
[17] = test system: Mesomycoplasma hyopneumoniae; assay: Anti-mycoplasma activity against Mycoplasma hyopneumoniae LH-NCTC10130 assessed as bacterial growth inhibition incubated for 7 days; assay type: functional; conditions: time 7 day
[18] = test system: Mesomycoplasma hyorhinis; assay: Anti-mycoplasma activity against Mycoplasma hyorhinis BTS-7-NCTC10130 assessed as bacterial growth inhibition incubated for 7 days; assay type: functional; conditions: BTS-7-NCTC10130, 168 h, time 7 day
[19] = test system: Mycoplasmoides gallisepticum; assay: Anti-mycoplasma activity against Mycoplasma gallisepticum MG-R-NCTC10115 assessed as bacterial growth inhibition incubated for 7 days; assay type: functional; conditions: MG-R-NCTC10115, 168 h, time 7 day
[20] = test system: Mycoplasmopsis synoviae; assay: Anti-mycoplasma activity against Mycoplasmopsis synoviae MS-MVU1852-NCTC10124 assessed as bacterial growth inhibition incubated for 7 days; assay type: functional; conditions: MS-MVU1852-NCTC10124, 168 h, time 7 day
[21] = Toxicity in neutropenic Kunming mouse model infected with methicillin-resistant Staphylococcus aureus ATCC 33591 assessed as survival rate at 5 mg/kg, ip measured after 7 days relative to control; assay type: organism-based; conditions: in vivo, 168 h, time 7 day
[22] = Toxicity in neutropenic Kunming mouse model infected with methicillin-resistant Staphylococcus aureus ATCC 33591 assessed as survival rate at 10 mg/kg, ip measured after 7 days relative to control; assay type: organism-based; conditions: in vivo, 168 h, time 7 day
[23] = Toxicity in neutropenic Kunming mouse model infected with methicillin-resistant Staphylococcus aureus ATCC 33591 assessed as survival rate at 20 mg/kg, ip measured after 7 days relative to control; assay type: organism-based; conditions: in vivo, 168 h, time 7 day
[24] = test system: Staphylococcus aureus; assay: Antibacterial activity against methicillin-resistant Staphylococcus aureus ATCC 33591 infected in neutropenic Kunming mouse model administered intraperitoneally measured after 7 days; assay type: functional; conditions: ATCC 33591, 168 h, route ip, time 7 day
[25] = test system: Staphylococcus aureus; assay: Antibacterial activity against methicillin-resistant Staphylococcus aureus ATCC 33591 infected in neutropenic Kunming mouse model assessed as bacterial load reduction in lung at 10 to 20 mg/kg, ip measured after 2 days; assay type: functional, organism-based; conditions: dose 10-20 mg/kg, time 2.0 day
[26] = test system: Staphylococcus aureus; assay: Antibacterial activity against methicillin-resistant Staphylococcus aureus ATCC 33591 infected in neutropenic Kunming mouse model assessed as bacterial load reduction in kidney at 10 to 20 mg/kg, ip measured after 2 days; assay type: functional, organism-based; conditions: dose 10-20 mg/kg, time 2.0 day
[27] = test system: Staphylococcus aureus; assay: Antibacterial activity against methicillin-resistant Staphylococcus aureus ATCC 33591 infected in neutropenic Kunming mouse model assessed as bacterial load reduction in liver at 10 to 20 mg/kg, ip measured after 2 days; assay type: functional, organism-based; conditions: dose 10-20 mg/kg, time 2.0 day
[28] = test system: Staphylococcus aureus; assay: Antibacterial activity against methicillin-resistant Staphylococcus aureus ATCC 33591 infected in neutropenic Kunming mouse model assessed as reduction in infection-induced inflammatory cell inflammation in lung at 10 mg/kg, ip measured after 7 days; assay type: functional, organism-based; conditions: time 7.0 day
[29] = test system: Staphylococcus aureus; assay: Antibacterial activity against methicillin-resistant Staphylococcus aureus ATCC 33591 infected in neutropenic Kunming mouse model assessed as reduction in infection-induced inflammatory cell inflammation in kidney at 10 mg/kg, ip measured after 7 days; assay type: functional, organism-based; conditions: time 7.0 day
[30] = test system: Staphylococcus aureus; assay: Antibacterial activity against methicillin-resistant Staphylococcus aureus ATCC 33591 infected in neutropenic Kunming mouse model assessed as reduction in infection-induced inflammatory cell inflammation in liver at 10 mg/kg, ip measured after 7 days; assay type: functional, organism-based; conditions: time 7.0 day

SMILES	MIC [1] [µg/mL]	MIC [2] [µg/mL]	MIC [3] [µg/mL]	MIC [4] [µg/mL]	MIC [5] [µg/mL]	MIC [6] [µg/mL]	MIC [7] [µg/mL]	MIC [8] [µg/mL]	MIC [9] [µg/mL]	MIC [10] [µg/mL]	MIC [11] [µg/mL]	MIC [12] [µg/mL]	CC50 at 24 h [13] [µM]	CC50 at 24 h [14] [µM]	CC50 at 24 h [15] [µM]	MIC [16] [µg/mL]	MIC [18] [µg/mL]	MIC [19] [µg/mL]	MIC [20] [µg/mL]	also measured
C=C[C@]1(C)C[C@@H](OC(=O)COC(=O)/C=C/c2cccc(C#N)c2)[C@]2(C)[C@H](C)CC[C@]3(CCC(=O)[C@H]32)[C@@H](C)[C@@H]1O	2 (≈ 3.75 µM)	2 (≈ 3.75 µM)	8 (≈ 15 µM)	16 (≈ 30 µM)	64 (≈ 120 µM)	128 (≈ 240 µM)	32 (≈ 60 µM)	64 (≈ 120 µM)	16 (≈ 30 µM)	128 (≈ 240 µM)	128 (≈ 240 µM)	> 128	78.5	29.2	> 200	–	–	–	–	–
C=C[C@]1(C)C[C@@H](OC(=O)COC(=O)/C(C#N)=C/c2ccccc2)[C@]2(C)[C@H](C)CC[C@]3(CCC(=O)[C@H]32)[C@@H](C)[C@@H]1O	8 (≈ 15 µM)	4 (≈ 7.5 µM)	8 (≈ 15 µM)	32 (≈ 60 µM)	8 (≈ 15 µM)	4 (≈ 7.5 µM)	64 (≈ 120 µM)	> 128	8 (≈ 15 µM)	64 (≈ 120 µM)	32 (≈ 60 µM)	8 (≈ 15 µM)	> 200	> 200	> 200	–	–	–	–	–
C=C[C@]1(C)C[C@@H](OC(=O)CSCCN(CC)CC)[C@]2(C)[C@H](C)CC[C@]3(CCC(=O)[C@H]32)[C@@H](C)[C@@H]1O [TIAMULIN]	16 (≈ 32.4 µM)	64 (≈ 130 µM)	> 128	128 (≈ 259 µM)	64 (≈ 130 µM)	64 (≈ 130 µM)	–	–	–	–	–	–	–	–	–	0.03 (≈ 0.0608 µM)	0.03 (≈ 0.0608 µM)	0.125 (≈ 0.253 µM)	2 (≈ 4.05 µM)	MIC ([17]; Mesomycoplasma hyopneumoniae, LH-NCTC10130, 168 h, read-out: MIC): 0.015 µg/mL (≈ 0.0304 µM)
C=C[C@]1(C)C[C@@H](OC(=O)CSC(C)(C)CNC(=O)[C@H](N)C(C)C)[C@]2(C)[C@H](C)CC[C@]3(CCC(=O)[C@H]32)[C@@H](C)[C@@H]1O [VALNEMULIN]	64 (≈ 113 µM)	4 (≈ 7.08 µM)	2 (≈ 3.54 µM)	> 128	2 (≈ 3.54 µM)	2 (≈ 3.54 µM)	128 (≈ 227 µM)	128 (≈ 227 µM)	128 (≈ 227 µM)	64 (≈ 113 µM)	128 (≈ 227 µM)	64 (≈ 113 µM)	37.3	31.1	46.2	0.001 (≈ 0.00177 µM)	0.001 (≈ 0.00177 µM)	0.001 (≈ 0.00177 µM)	0.015 (≈ 0.0266 µM)	MIC [17]: 0.3 10^-4 ug/ml; Survival [21]: 20%; Survival [22]: 40%; Survival [23]: 70%; ED50 [24]: 14 mg/kg; Activity [25]: Active; Activity [26]: Active; Activity [27]: Active; Activity [28]: inactive; Activity [29]: inactive; Activity [30]: inactive
C=C[C@]1(C)C[C@@H](OC(=O)COC(=O)/C=C/c2ccc([N+](=O)[O-])cc2)[C@]2(C)[C@H](C)CC[C@]3(CCC(=O)[C@H]32)[C@@H](C)[C@@H]1O	2 (≈ 3.61 µM)	8 (≈ 14.4 µM)	2 (≈ 3.61 µM)	4 (≈ 7.22 µM)	32 (≈ 57.8 µM)	64 (≈ 116 µM)	16 (≈ 28.9 µM)	16 (≈ 28.9 µM)	8 (≈ 14.4 µM)	64 (≈ 116 µM)	128 (≈ 231 µM)	128 (≈ 231 µM)	> 200	> 200	> 200	–	–	–	–	–
